Legend:
[1] = system: MCF-7 (human breast carcinoma cell line); assay: CCK-8 antiproliferative assay, MCF-7; type: cell-based; conditions: MCF7, 48 h, read-out: IC50, Mean ± SE, MCF-7
[2] = system: HCT-8 (human ileocecum carcinoma cell line); assay: CCK-8 cytotoxicity, HCT-8; type: cell-based; conditions: 48 h, read-out: IC50, Mean ± SE, HCT-8
Experimental: (§1) Besides the high cytotoxicity, drug resistance is the other limiting factor of chemotherapeutics. In this study, the cytotoxicities of compound 14b towards five kinds of drug-resistant cancer cell lines were also evaluated. Except three kinds of cell lines that are resistant to three drugs commonly used in clinical practice, two kinds of cell lines that are resistant to MTAs were also evaluated.
(§2) A549 (non-small-cell-lung cancer cell line), Caski (human epithelial cervical cancer cell line), HepG2 (human liver carcinoma cell line), MCF-7 (human breast carcinoma cell line), C42B (human prostate cancer line C42B), L-02 (human normal hepatocytes), RWPE-1 (human prostate epithelial cells) and MCF-10A (human normal mammary epithelial cells) were obtained from National Collection of Authenticated Cell Cultures (Shanghai, China). […]
(§3) After 24 h, the medium containing different concentrations of tested compounds were added for another 48 h. […] The optical density was recorded with a microplate reader at 570 nm (Thermo Scientific, Varioskan LUX). All the experiments were repeated independently at least three times and the IC50 values were calculated […]

[3] = system: A2780 (human ovarian cancer cell line); assay: CCK-8 cytotoxicity, A2780; type: cell-based; conditions: 48 h, read-out: IC50, Mean ± SE, A2780
Experimental: as §1, §2, §3

A549 cells = assay: intracellular ROS detection by DCFH-DA; type: cell-based, human; conditions: A549, 10, 20 and 50 nM, 12 h
Text: The intrinsic mitochondrial pathway is one of the most well-studied mechanisms relevant to cell apoptosis. ROS accumulation and mitochondrial membrane potential (MMP) alteration play crucial roles in this pathway. In this study, a fluorescent dye including DCFH-DA and JC-1 was used to monitor the intracellular ROS and MMP, respectively.
Figure 5 ROS accumulation and MMP alteration induced by compound 14b. (A,B) The intracellular ROS detection by DCFH-DA after A549 cells treated with compound 14b at indicated concentrations for 12 h. (C,D) The detection of MMP monitored by JC-1 dye after A549 cells treated with compound 14b at the concentrations of 10, 20 and 50 nM for 12 h. […]
samples were fixed in ice-cold 70% ethanol overnight and removed with ice-cold PBS for three times. […] After the incubation, the prepared cell samples were immediately analyzed. Almost 10,000 events were detected by flow cytometry (Beckman Coulter, CytoFlex LX). The data regarding the number of cells in different phases of the cell cycle were or apoptotic cells were analyzed by […]
Caspase-3 activity was measured according to the manufacturer ’s instructions using a GreenNuc™ Caspase-3 assay kit for live cells (Beyotime, China). […] After incubation, the fluorescence intensity (excitation wavelength:
485 nm, emission wavelength: 515 nm) was recorded using a multifunctional microplate reader (Thermo Scientific, Varioskan LUX). […]

Structure (SMILES): COc1ccc(C(=O)c2ccc3c(ccn3C)c2)c2c1C=CC(C)(C)O2 [compound 14b, (5-methoxy-2,2-dimethyl-2H-chromen-8-yl)(1-methyl-1H-indol-5-yl)methanone]
- IC50 [1]: 0.027 ± 0.006 µM
- IC50 [2]: 0.089 ± 0.015 µM
- IC50 [3]: 0.036 ± 0.004 µM
- level of ROS (A549 cells): significantly rose abruptly in a dose-dependent manner

— paper PMC9921564, “Novel Indole-Containing Hybrids Derived from Millepachine: Synthesis, Biological Evaluation and Antitumor Mechanism Study” (Molecules, 2023)
